Assays:
MKP3 = conditions: basal, without ERK2; cited from earlier work
[1] = molecular target: T1, Full-length human MKP3, MKP3(1-381) (human) (UniProt Q16828)
T1 sequence: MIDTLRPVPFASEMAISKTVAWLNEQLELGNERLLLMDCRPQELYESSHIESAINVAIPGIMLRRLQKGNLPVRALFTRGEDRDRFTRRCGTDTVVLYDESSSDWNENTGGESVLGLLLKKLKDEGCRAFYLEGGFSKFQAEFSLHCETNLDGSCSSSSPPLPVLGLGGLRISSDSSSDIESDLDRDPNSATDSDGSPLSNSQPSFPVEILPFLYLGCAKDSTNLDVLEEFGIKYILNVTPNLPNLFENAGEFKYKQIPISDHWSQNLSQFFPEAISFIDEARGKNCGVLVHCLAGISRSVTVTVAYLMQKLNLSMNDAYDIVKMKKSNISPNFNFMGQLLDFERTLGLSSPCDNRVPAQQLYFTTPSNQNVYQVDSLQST

Row | Compound | effect on MKP3's basal activity toward OMFP (MKP3) | time of pERK2 dephosphorylation by MKP3^FL with BCI at a concentration 50 times that of pERK2 [1] [fold]
1 | O=C1C(SCCO)=C(SCCO)C(=O)c2ccccc21 [NSC95397] | inhibited | –
2 | Phosphorylated ERK2 (bis-pERK2, phosphorylated at T183 and Y185) (from UniProt P63085 1-358) (enzyme) | – | > 20
